The text below walks through data of patent US20210353749A1, “GUANABENZ AS AN ADJUVANT FOR IMMUNOTHERAPY” (UNIVERSITÉ CATHOLIQUE DE LOUVAIN, priority 2018, published 2021).

In this test the test system is Mouse NK cells. Put plainly: In vitro NK cell function (CD107a degranulation). It counts as cell-based. The conditions noted are these: guanabenz 20 μM, 16 hours, RMA-S target cells; FIG. 10. As for the experimental part: Mouse NK cells: murine NK cells were isolated from mouse splenocytes using anti-CD49b magnetic beads. Murine NK cells were isolated from mouse splenocytes using anti-CD49b magnetic beads and were activated in vitro by co-incubation with irradiated RMA-S cells. 4 days after activation, they were collected and plated at 50,000 cells per well in a 96 U plate with 20 μM of guanabenz and incubated at 37° C. overnight prior to their use in the assay on the next day. On the day of the assay, the culture supernatant was removed from the cells and the cells were washed once with complete medium to remove the drug. The target cells (RMA-S cells) were added to the wells at a ratio of 1:1. Control wells containing either only NK cells or target cells were also included for each plate. CD107a-APC was added to each well at the same time as addition of the target cells. The plate was then incubated at 37° C. for 90 minutes. At the end of the incubation period the cells were harvested and washed once with PBS. They were stained with anti-mouse CD49b-PE antibody for 15 minutes. The cells were then washed and resuspended in PBS and analyzed using FACS Fortessa flow cytometer.

The structures appear in SMILES notation.

As for `NC(N)=N/N=C/c1c(Cl)cccc1Cl` [guanabenz, 2-[(E)-(2,6-dichlorophenyl)methylideneamino]guanidine], the “NK cell degranulation (FACS detection of CD107a)” value was “significantly increased”.
